Results reported in patent US20040229816A1, “Anti-angiogenic and anti-tumoral properties of beta and gamma secretase inhibitors” (priority 2003, published 2004).
Entries after “also recorded” stand apart in the source; their conditions may differ.

Key:
[1] = tested on: human brain endothelial cells; experiment: viability of human brain endothelial cells (LDH activity in culture medium); type: cell-based; conditions: doses employed, 24 hours
Description: (§1) Primary cultures of human brain endothelial cells were plated at a density of 10^4 cells/[…] of EBM 4% in 96 wells culture plates and treated with various doses of γ-secretase and β-secretase inhibitors as indicated in the figure legends. Following 24 hours in culture, the EBM covering the cells was removed and assayed for Lacticodehydrogenase (LDH) activity using the cytotoxicity detection kit (Roche Diagnostic Corporation, Ind.). Cells were covered with […] of EBM 4% and cellular proliferation measured using the Quick cell proliferation assay kit (Biovision Research Products, Calif.).

[2] = tested on: human brain endothelial cells; experiment: proliferation of human brain endothelial cells (Quick cell proliferation assay kit); type: cell-based; conditions: various doses, 24 hours
Description: as §1

[3] = tested on: human lung adenocarcinoma (A-549) xenografts; experiment: human lung adenocarcinoma A-549 xenografts in nude mice; type: in vivo
Description: FIG. 9a: Anti-tumoral effect of the γ-secretase inhibitor DAPT and of the β-secretase inhibitor Z-VLL-CHO on human lung adenocarcinoma (A-549) xenografts growth rates. A-549 cells (8.5×10^6) were injected subcutaneously into both flanks of 8-10 weeks-old nude mice. Mice were injected intraperitoneally with either the vehicle, 5 mg/Kg of body weight of the β-secretase inhibitor Z-VLL-CHO or 10 mg/Kg of body weight of the γ-secretase inhibitor DAPT, starting when tumors had reached a mean tumor volume of approximately 200 mm^3 (day 21 post implantation). Injections were given everyday for 12 days. […] FIG. 9b: Representative pictures of sections of lung adenocarcinoma tumors immunostained with CD31 antibodies. FIG. 9c: Histogram depicting the quantification of the vascularization of lung adenocarcinoma tumors.
FIG. 10: Anti-tumoral effect of the γ-secretase inhibitor JLK-6 on human lung adenocarcinoma (A-549) xenografts growth rates. A-549 cells (8.5×10^6) were injected subcutaneously into both flanks of 8-10 weeks-old nude mice. Mice were injected intraperitoneally everyday from Day 16 (when the tumors reached a volume of approximately 150 mm^3) with either the vehicle or 5 mg/Kg of body weight of the γ-secretase inhibitor JLK-6.
The human glioblastoma U-87 MG and human lung adenocarcinoma A-549 cell lines were obtained from American Tissue Culture Type Collection (Manassas, Va.) and were grown in DMEM containing 1×penicilline-streptomycine-fungizone and 10% fetal bovine serum at 37° C. in a humidified atmosphere of 5% CO2. Tumor cells (6×106) in 100 μl of PBS were inoculated subcutaneously into both flanks of 8-10-week-old female nude mice (Harland). Tumor volume (in mm^3) was determined using the formula (length×width^2)/2, where length was the longest axis and width the measurement at right angles to the length (Clarke et al. 2000). When the tumor volumes reached approximately 150 mm^3, animals were treated intraperitoneally everyday with 100 μl of 50% DMSO/H2O (vehicle group), 5 mg/Kg of body weight of Z-VLL-CHO (β-secretase inhibitor), 5 mg/Kg of JLK-6 (γ-secretase inhibitor) or with 10 mg/Kg of body weight of DAPT. Data were expressed as mean tumor volume±S.E for each treatment group.
At the completion of the study, animals were humanely euthanized and tumors were harvested and fixed in paraformaldehyde 4% overnight at 4° C. After paraffin embedding in an automated tissue processing Sakura Tissue-Tek (E150) (Torrence, Calif.), samples were cut into 5 μm sections, deparafinized, and rehydrated through a graded series of alcohol. Sections were treated with 0.02 mg/ml Proteinase K (Gentra Systems, MN) for 15 minutes at 37° C. to allow for proper antigen retrieval, washed several times in PBS and incubated for 15 minutes in a 0.3% solution of hydrogen peroxide. Sections were blocked and then immunostained with a 1:40 dilution of a PECAM-1 antibody (BD-Pharmingen, CA) overnight at 4° C. in a humidification chamber. Vector ABC Kits (Vector Laboratories Inc, CA) where used following the manufacturer's instruction for the immunostaining. Quantification of tumor vascularization was performed using the stereological dissector method. Briefly, forty consecutive sections were taken from a randomly chosen starting point in each tumor. Five sections for each tumor were selected for stereology by taking one section every eight sections. A dissector counting frame was used with inclusion and exclusion lines throughout the reference area. Vessel count was performed at ×400 magnification with the use of an Olympus microscope connected to a digital video camera. Microvessels were counted in the dissector frame by an experimenter unaware of the different treatment conditions. For each tumor an average vessel count per area of dissector frame was determined. A vascular index was calculated by expressing the vessel count as a percentage of the vessel count in the vehicle treatment condition.

[4] = angiogenesis in vitro (test not specified); type: cell-based
Notch = conditions: cited from earlier work
presenilin 1 and 2 = conditions: cited from earlier work

SMILES: COc1oc(=O)c2cc(N)ccc2c1Cl [JLK-6, 7-amino-4-chloro-3-methoxyisocoumarin]
- cellular toxicity / viability of human brain endothelial cells versus control [1]: without inducing cellular toxicity
- proliferation of human brain endothelial cells, dose dependence [2]: dose dependently inhibited
- vascularization of A-549 tumors ([3]; 5 mg/Kg intraperitoneally): inhibited
- growth (tumor volume) of A-549 xenografts versus vehicle ([3]; 5 mg/Kg intraperitoneally everyday from Day 16): inhibited; also recorded: significantly inhibits the growth; also recorded: inhibit the growth
- angiogenesis in vitro [4]: appears to reduce angiogenesis
- processing of Notch (Notch): does not affect
- proteolysis of presenilin 1 and 2 (presenilin 1 and 2): does not affect
